What was measured:
D(3) dopamine receptor = D(3) dopamine receptor (Homo sapiens, UniProt P35462)
[1] = molecular target: 5-hydroxytryptamine receptor 2A (Homo sapiens, UniProt P28223)
[2] = molecular target: 5-hydroxytryptamine receptor 6 (Homo sapiens, UniProt P50406)
[3] = molecular target: 5-hydroxytryptamine receptor 1B (Homo sapiens, UniProt P28222)
[4] = molecular target: 5-hydroxytryptamine receptor 2B (Homo sapiens, UniProt P41595)
[5] = molecular target: 5-hydroxytryptamine receptor 7 (Homo sapiens, UniProt P34969)
[6] = molecular target: 5-hydroxytryptamine receptor 1E (Homo sapiens, UniProt P28566)
[7] = molecular target: Muscarinic acetylcholine receptor M3 (Homo sapiens, UniProt P20309)
D(2) dopamine receptor = D(2) dopamine receptor (Homo sapiens, UniProt P14416)
[8] = molecular target: T1, Alpha-1B adrenergic receptor (Homo sapiens, UniProt P35368)
T1 sequence (P35368 whole entry): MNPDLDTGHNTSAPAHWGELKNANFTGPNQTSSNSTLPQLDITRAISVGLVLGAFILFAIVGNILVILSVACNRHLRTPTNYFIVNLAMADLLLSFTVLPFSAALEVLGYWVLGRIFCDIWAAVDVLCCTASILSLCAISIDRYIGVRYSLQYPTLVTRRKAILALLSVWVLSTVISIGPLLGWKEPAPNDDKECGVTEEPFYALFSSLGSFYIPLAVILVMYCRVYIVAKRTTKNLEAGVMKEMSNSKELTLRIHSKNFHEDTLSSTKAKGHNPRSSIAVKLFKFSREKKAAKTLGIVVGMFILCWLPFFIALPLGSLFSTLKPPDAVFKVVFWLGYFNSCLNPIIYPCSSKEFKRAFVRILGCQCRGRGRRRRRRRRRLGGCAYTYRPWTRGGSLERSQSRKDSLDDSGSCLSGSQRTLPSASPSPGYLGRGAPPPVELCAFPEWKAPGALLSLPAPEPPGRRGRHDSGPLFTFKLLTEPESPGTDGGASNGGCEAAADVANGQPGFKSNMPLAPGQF

[9] = molecular target: T2, 5-hydroxytryptamine receptor 1F (Homo sapiens, UniProt P30939)
T2 sequence (P30939 whole entry): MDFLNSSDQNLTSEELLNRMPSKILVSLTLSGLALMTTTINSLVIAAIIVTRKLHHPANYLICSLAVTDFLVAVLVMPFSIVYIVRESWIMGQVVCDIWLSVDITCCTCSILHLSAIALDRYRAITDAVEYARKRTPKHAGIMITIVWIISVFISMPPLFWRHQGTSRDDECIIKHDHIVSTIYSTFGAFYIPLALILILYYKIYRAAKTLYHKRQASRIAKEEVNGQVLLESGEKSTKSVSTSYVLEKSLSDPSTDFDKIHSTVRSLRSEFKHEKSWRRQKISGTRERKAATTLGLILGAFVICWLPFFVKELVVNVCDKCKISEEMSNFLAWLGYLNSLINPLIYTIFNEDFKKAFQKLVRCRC

[10] = molecular target: 5-hydroxytryptamine receptor 4 (Sus scrofa, UniProt Q29006)
[11] = molecular target: T3, 5-hydroxytryptamine receptor 2C (Homo sapiens, UniProt P28335)
T3 sequence (P28335 whole entry): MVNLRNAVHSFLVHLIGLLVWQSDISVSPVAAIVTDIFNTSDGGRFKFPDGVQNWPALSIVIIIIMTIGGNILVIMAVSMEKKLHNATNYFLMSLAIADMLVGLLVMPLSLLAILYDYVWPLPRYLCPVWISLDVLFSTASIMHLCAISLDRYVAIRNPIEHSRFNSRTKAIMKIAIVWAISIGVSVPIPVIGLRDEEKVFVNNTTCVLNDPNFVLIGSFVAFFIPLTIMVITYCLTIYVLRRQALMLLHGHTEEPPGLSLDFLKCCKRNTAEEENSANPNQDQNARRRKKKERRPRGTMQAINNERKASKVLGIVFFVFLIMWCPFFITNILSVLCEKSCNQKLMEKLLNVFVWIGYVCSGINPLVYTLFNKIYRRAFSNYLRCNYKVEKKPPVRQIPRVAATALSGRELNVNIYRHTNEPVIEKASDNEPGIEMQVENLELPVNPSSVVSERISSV

Sequence of Muscarinic acetylcholine receptor M3 (P20309 whole entry): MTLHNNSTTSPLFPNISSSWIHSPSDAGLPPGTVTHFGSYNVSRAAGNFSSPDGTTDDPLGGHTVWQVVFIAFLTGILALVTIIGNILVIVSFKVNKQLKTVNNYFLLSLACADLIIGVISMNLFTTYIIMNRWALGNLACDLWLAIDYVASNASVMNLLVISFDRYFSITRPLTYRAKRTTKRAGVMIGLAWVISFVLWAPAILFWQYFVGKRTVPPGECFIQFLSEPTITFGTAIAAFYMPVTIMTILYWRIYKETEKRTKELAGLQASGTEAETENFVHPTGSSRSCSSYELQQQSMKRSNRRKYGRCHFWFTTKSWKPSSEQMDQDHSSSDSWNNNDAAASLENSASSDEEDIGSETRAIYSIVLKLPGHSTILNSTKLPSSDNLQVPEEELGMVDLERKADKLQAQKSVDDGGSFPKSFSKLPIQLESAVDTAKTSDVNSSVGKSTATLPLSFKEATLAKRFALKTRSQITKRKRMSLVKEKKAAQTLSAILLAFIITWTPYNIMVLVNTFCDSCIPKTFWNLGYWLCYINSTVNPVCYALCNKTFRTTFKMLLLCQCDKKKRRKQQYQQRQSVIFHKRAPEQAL
Sequence of 5-hydroxytryptamine receptor 4 (Q29006 whole entry): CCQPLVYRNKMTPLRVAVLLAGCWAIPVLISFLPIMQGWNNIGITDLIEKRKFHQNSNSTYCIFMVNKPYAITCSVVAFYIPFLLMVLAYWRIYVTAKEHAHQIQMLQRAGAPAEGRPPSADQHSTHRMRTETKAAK
Sequence of 5-hydroxytryptamine receptor 1E (P28566 whole entry): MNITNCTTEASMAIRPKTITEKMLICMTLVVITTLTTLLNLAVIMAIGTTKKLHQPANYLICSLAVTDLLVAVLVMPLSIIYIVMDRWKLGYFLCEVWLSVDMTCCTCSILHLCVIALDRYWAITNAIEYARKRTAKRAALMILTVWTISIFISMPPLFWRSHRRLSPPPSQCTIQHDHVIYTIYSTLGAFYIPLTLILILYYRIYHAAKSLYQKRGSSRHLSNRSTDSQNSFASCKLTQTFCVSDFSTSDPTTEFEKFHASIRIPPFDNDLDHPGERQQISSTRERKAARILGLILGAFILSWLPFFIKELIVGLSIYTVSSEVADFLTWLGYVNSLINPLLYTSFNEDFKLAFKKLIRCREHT
Sequence of 5-hydroxytryptamine receptor 2B (P41595 whole entry): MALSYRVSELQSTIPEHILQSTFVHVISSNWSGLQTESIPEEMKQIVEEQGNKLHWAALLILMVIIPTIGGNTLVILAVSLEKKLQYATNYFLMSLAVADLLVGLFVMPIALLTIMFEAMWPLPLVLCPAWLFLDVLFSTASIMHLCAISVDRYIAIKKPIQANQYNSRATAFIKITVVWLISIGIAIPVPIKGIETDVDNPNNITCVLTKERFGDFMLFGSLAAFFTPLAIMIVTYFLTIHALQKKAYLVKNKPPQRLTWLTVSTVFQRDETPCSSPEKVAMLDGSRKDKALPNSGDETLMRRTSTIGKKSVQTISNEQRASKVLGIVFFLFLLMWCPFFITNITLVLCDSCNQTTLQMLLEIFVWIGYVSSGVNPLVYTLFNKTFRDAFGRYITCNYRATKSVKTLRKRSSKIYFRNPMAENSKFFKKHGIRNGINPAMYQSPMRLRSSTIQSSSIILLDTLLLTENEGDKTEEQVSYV
Sequence of 5-hydroxytryptamine receptor 7 (P34969 whole entry): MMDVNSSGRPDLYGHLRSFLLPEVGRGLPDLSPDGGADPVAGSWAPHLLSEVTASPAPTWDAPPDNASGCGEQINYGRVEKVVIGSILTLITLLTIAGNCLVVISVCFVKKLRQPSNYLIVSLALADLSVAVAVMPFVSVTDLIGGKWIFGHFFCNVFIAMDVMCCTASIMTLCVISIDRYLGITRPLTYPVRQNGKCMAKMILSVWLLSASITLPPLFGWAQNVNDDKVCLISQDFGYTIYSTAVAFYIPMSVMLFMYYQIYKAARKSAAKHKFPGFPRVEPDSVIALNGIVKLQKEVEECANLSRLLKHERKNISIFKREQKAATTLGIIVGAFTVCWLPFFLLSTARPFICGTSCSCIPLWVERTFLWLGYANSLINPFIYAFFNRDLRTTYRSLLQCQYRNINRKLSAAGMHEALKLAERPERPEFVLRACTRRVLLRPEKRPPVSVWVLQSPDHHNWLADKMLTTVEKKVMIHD
Sequence of 5-hydroxytryptamine receptor 2A (P28223 whole entry): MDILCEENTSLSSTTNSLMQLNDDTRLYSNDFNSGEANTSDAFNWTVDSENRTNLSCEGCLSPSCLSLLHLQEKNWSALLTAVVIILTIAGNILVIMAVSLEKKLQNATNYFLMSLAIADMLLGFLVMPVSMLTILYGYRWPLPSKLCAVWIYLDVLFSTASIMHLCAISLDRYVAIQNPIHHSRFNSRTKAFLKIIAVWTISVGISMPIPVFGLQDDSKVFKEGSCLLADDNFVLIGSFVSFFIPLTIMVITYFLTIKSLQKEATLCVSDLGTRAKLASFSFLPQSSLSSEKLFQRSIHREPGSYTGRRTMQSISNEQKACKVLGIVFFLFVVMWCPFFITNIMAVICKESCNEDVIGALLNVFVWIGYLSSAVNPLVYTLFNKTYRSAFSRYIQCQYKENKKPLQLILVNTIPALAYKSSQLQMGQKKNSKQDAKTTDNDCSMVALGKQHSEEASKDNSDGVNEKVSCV
Sequence of D(2) dopamine receptor (P14416 whole entry): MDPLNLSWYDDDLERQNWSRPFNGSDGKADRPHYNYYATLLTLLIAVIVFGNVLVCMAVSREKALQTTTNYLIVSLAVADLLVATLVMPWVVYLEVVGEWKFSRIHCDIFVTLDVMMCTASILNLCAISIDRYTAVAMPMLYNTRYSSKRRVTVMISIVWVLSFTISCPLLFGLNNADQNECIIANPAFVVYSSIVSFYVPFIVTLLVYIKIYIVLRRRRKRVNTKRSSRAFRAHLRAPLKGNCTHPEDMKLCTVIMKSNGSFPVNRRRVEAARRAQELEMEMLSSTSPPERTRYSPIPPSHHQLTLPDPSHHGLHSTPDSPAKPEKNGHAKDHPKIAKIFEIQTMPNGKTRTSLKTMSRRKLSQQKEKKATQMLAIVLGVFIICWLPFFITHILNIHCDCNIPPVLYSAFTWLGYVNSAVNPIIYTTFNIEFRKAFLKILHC
Sequence of 5-hydroxytryptamine receptor 6 (P50406 whole entry): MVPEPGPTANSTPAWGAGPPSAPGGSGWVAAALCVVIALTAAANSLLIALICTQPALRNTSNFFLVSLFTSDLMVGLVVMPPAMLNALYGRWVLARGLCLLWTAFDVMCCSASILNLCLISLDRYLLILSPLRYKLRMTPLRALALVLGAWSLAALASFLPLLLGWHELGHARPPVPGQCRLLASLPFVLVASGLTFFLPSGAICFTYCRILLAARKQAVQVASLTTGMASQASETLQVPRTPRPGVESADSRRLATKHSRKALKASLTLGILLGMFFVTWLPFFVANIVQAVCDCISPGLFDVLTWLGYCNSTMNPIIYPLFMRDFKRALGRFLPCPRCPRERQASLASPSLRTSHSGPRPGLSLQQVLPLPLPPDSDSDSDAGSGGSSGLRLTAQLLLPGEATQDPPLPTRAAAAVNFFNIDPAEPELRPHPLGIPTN
Sequence of 5-hydroxytryptamine receptor 1B (P28222 whole entry): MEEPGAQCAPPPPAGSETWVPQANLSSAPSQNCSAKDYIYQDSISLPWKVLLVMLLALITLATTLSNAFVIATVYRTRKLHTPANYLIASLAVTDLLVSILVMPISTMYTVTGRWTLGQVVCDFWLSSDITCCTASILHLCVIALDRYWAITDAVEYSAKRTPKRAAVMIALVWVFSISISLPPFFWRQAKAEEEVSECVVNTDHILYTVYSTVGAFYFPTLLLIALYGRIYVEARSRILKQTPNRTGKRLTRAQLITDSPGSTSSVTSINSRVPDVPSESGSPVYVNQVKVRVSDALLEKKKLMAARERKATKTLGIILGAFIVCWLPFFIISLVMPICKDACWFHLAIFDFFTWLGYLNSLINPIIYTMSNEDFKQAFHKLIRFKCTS
Sequence of D(3) dopamine receptor (P35462 as listed by the source): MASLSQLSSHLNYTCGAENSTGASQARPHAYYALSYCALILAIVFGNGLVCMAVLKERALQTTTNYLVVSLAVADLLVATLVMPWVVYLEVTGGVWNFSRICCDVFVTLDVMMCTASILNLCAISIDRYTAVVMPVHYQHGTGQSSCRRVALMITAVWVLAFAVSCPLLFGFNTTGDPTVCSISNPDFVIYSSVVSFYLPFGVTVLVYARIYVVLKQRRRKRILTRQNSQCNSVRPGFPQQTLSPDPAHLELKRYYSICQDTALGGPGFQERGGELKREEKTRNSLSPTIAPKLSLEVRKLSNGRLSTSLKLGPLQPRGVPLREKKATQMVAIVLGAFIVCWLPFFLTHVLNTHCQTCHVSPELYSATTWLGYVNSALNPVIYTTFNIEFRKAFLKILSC

How did the Ki (D(3) dopamine receptor) turn out when CCCCCCOc1nsnc1C1=CCCN(C)C1 was run?
The Ki was 398 nM.

What about the Ki [1] of the same compound?
The Ki was 126 nM.

And the Ki [2]?
Its Ki is 1260 nM.

What about the Ki [3] of the same compound?
Its Ki is 50.1 nM.

And the Ki [4]?
Its Ki is 19.9 nM.

What about the Ki [5] of the same compound?
The Ki was 126 nM.

And the Ki [6]?
The Ki was 2510 nM.

And the Ki [7]?
The Ki was 39.8 nM.

And the Ki (D(2) dopamine receptor)?
The Ki was 1000 nM.

What about the Ki [8] of the same compound?
Its Ki is 1580 nM.

And the Ki [9]?
The Ki was 316 nM.

And the Ki [10]?
The Ki was 251 nM.

What about the Ki [11] of the same compound?
The Ki was 39.8 nM.
